A short description of data set [1]: Docetaxel plasma pharmacokinetics with and without tariquidar. It is filed as in vivo, human. To be noted: docetaxel 40 mg/m2, tariquidar 150 mg.
For data set [2] the following is noted: patients who receive weekly docetaxel; cited from earlier work.
Data set [3] addresses T1, Pgp (Homo sapiens, UniProt P08183). Kind of data set: 99mTc-sestamibi scanning before and after tariquidar. Type of data set: in vivo. Particulars: after tariquidar 150 mg vs baseline.
Data set [4] addresses T1, Pgp. The data set can be described thus: Rhodamine 123 efflux from CD56+ mononuclear cells of patients. It is filed as cell-based.
In another data set the test system is MRP1. Particulars: cited from earlier work.
In a further data set the test system is ABCG2. Particulars: compared with Pgp; cited from earlier work.

Molecules are shown by their SMILES.

T1 sequence (P08183 whole entry): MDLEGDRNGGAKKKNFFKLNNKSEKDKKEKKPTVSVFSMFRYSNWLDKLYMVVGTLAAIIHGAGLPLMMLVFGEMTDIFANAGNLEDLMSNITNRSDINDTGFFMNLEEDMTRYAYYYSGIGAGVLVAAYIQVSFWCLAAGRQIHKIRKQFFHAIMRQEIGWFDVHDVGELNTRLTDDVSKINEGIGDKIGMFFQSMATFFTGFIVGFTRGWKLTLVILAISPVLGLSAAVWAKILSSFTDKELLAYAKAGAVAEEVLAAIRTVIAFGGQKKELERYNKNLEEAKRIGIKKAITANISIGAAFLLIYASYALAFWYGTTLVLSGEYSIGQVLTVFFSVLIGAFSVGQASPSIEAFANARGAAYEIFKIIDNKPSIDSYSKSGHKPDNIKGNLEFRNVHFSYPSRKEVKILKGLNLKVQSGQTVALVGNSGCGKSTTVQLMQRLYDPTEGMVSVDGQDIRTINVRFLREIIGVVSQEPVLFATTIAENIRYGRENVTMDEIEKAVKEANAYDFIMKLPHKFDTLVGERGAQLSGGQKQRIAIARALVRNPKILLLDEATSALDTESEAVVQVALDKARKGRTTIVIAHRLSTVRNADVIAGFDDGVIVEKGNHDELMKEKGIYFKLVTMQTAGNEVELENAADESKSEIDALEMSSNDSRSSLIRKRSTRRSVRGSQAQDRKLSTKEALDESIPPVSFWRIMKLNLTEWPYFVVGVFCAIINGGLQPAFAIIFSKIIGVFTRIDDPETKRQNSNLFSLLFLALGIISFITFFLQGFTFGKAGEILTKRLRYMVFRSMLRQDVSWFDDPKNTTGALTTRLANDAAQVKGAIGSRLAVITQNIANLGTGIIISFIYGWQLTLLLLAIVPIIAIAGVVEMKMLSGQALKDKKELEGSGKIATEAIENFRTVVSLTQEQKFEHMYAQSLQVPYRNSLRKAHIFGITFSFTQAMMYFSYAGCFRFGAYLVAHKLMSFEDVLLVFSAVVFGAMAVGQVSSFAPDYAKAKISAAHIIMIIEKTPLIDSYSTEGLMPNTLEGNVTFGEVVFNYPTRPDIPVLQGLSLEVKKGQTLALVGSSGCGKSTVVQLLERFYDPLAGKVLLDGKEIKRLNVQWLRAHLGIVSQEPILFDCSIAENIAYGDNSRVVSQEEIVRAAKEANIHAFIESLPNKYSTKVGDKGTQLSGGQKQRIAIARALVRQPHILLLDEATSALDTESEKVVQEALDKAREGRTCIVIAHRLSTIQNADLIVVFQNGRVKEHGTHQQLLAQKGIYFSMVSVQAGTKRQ

Turning to `CC(=O)O[C@@]12CO[C@@H]1C[C@H](O)[C@@]1(C)C(=O)[C@H](O)C3=C(C)[C@@H](OC(=O)[C@H](O)[C@@H](NC(=O)OC(C)(C)C)c4ccccc4)C[C@@](O)([C@@H](OC(=O)c4ccccc4)[C@H]21)C3(C)C` [docetaxel], the “docetaxel disposition, pairwise comparison with and without tariquidar” value in data set [1] (AUC0-24 and Cmax) was “no significant difference”. Besides, in data set [1] (31 patients, plasma), the “geometric mean ratio of docetaxel AUC0-24 (with tariquidar/without tariquidar)” value is listed as 1.07 (95% CI: 0.922-1.25) and the “geometric mean ratio of docetaxel Cmax (with tariquidar/without tariquidar)” value is reported as 0.907 (95% CI: 0.697-1.18). Besides, the “epiphora secondary to canalicular stenosis, incidence” value in data set [2] is listed as 33-50%.

Take `COc1cc2c(cc1OC)CN(CCc1ccc(NC(=O)c3cc(OC)c(OC)cc3NC(=O)c3cnc4ccccc4c3)cc1)CC2` [tariquidar]: on Pgp [3] (P<0.001), the “change in sestamibi AUC, liver” value is on record as “statistically significant change” and the “change in sestamibi AUC, visualized tumor tissue” value was “statistically significant change”. In addition, at Pgp [3] (two-tailed Student's t-test), the “change in sestamibi AUC0-3, cardiac tissue” value is on record as “No statistically significant increase” and the “change in sestamibi AUC0-3, lung tissue” value is reported as “No statistically significant increase”. In addition, the “rhodamine efflux from CD56+ cells compared to Pre levels” value at Pgp [4] (24 h after start of tariquidar 150 mg IV infusion, 41 patients) is on record as “significantly decreased”. Moreover, the “inhibition of Pgp in circulating mononuclear cells” value against Pgp [4] (tariquidar 150 mg IV) was “complete inhibition”. In addition, the “inhibition of MRP1” value in the data set with MRP1 is given as “does not inhibit”. For the same compound, in the data set on ABCG2, the “inhibition of ABCG2-mediated resistance in vitro” value is “higher concentrations are required to inhibit ABCG2”.

As for `C/C=C/C[C@@H](C)C(=O)[C@H]1C(=O)N[C@@H](C(C)C)C(=O)N(C)CC(=O)N(C)[C@@H](CC(C)C)C(=O)N[C@@H](C(C)C)C(=O)N(C)[C@@H](CC(C)C)C(=O)N[C@@H](C)C(=O)N[C@H](C)C(=O)N(C)[C@@H](CC(C)C)C(=O)N(C)[C@@H](CC(C)C)C(=O)N(C)[C@@H](C(C)C)C(=O)N1C` [valspodar], the “inhibition of Pgp-mediated rhodamine transport” value on Pgp [4] (exogenously added valspodar 3 μg/ml) is recorded as “fully inhibits”.
